Patent US20200399238A1, “THERAPEUTIC AURONES” (MIDDLE TENNESSEE STATE UNIVERSITY, priority 2016, published 2020)
Where two headings read alike, the source gives them in different places.

Tests used:
[1] = tested on: Trypanosoma cruzi Tulahuen cells expressing beta-galactosidase; experiment: T. cruzi intracellular assay (beta-galactosidase, L6 host cells); settings: for IC50: Trypanosoma cruzi, TULAHUEN; for Selectivity L6/Tc-I: Table 3B
[2] = tested on: Trypanosoma brucei brucei 427 cells; experiment: T. brucei culture and assay (PrestoBlue); format: cell-based
[3] = tested on: Leishmania amazonensis promastigotes expressing beta-lactamase; experiment: microbe, parasite or virus in culture; format: cell-based; settings: for IC50: Leishmania amazonensis, read-out: IC50 L. amaz.
[4] = tested on: rat skeletal muscle cell line, L6; experiment: cells; format: cell-based
[5] = Table 1, intracellular T. cruzi IC50
[6] = Table 2, L6 IC50 / T. cruzi IC50 (intracellular assay)
[7] = read-out: IC50 T. cruzi, Table 1, intracellular assay, mean of 2(+) trials (^c one trial)
[8] = read-out: IC50 T. cruzi, Table 2, intracellular assay, mean of 2(+) independent trials
[9] = read-out: IC50 TC-I, Table 3A, weighted means of two or more independent trials
[10] = Table 2, mean of 2(+) independent trials, read-out: IC50 T. brucei
[11] = Trypanosoma brucei, Table 1, mean of 2(+) independent trials, read-out: IC50 T. brucei
[12] = Table 2, L6 IC50 / L. amazonensis IC50
[13] = Rattus norvegicus, Table 1, read-out: IC50 Toxicity (L6)
[14] = Rattus norvegicus, Table 3A, weighted means of two or more independent trials, read-out: IC50 L6
[15] = read-out: IC50 TC-I, Table 3B, weighted means of two or more independent trials
[16] = Rattus norvegicus, Table 3B, weighted means of two or more independent trials, read-out: IC50 L6
[17] = Trypanosoma brucei, read-out: T. brucei IC50 dose
[18] = estimated from highest L6 dose tested where no L6 IC50

O=C1/C(=C/c2ccc(I)cc2)Oc2ccccc21 [Aurone 9029, (Z)-2-(4-iodobenzylidene)benzofuran-3(2H)-one]
melting point: 176 to 179 °C
Selectivity L6/Tc [1, 5]: >9.04
Selectivity L6/Tc [1, 6]: >9.04
Selectivity L6/TC-I ([1]; Table 3A, estimated from highest L6 dose tested where no L6 IC50): >9.04
IC50 [1, 7]: 11.1 µM
IC50 [1, 8]: 11.1 µM
IC50 [1, 9]: 11.1 µM
IC50 [2, 10]: > 50 µM
IC50 [2, 11]: > 50 µM
IC50 [3]: 3.11 µM
Selectivity L6/La ([3]; Table 1): >32.15
Selectivity L6/La [3, 12]: >32.15
IC50 [4, 13]: > 100 µM
IC50 [4, 14]: > 100 µM
IC50 ([4]; Table 2, L6 mammalian cells, read-out: IC50 Toxicity (L6)): > 100 µM

COC(=O)c1ccc(/C=C2\Oc3ccccc3C2=O)cc1 [Aurone 9047, Methyl (Z)-4-((3-oxobenzofuran-2(3H)-ylidene)methyl)benzoate]
melting point: 144 to 147 °C
IC50 [1, 7]: > 50 µM
IC50 [1, 9]: > 50 µM
IC50 [2, 11]: > 50 µM
IC50 [3]: 24.2 µM
Selectivity L6/La ([3]; Table 1): >4.13
IC50 [4, 13]: > 100 µM
IC50 [4, 14]: > 100 µM

O=C1/C(=C/c2cc(Br)c(Br)s2)Oc2ccccc21 [Aurone 9050, (Z)-2-((4,5-dibromothiophen-2-yl)methylene)benzofuran-3(2H)-one]
melting point: 185 to 190 °C
IC50 [1, 7]: > 50 µM
IC50 [1, 8]: > 50 µM
IC50 [1, 15]: > 50 µM
IC50 [2, 11]: > 50 µM
IC50 [3]: 9.24 µM
IC50 [4, 13]: > 100 µM
IC50 [4, 16]: > 100 µM

O=C1/C(=C/c2ccccn2)Oc2ccccc21 [Aurone 9051, (Z)-2-(pyridin-2-ylmethylene)benzofuran-3(2H)-one]
melting point: 119 to 121 °C
IC50 [1, 7]: 19.4 µM
IC50 [1, 8]: 19.4 µM
IC50 [1, 15]: 19.4 µM
IC50 [2, 11]: 23.2 µM
IC50 [2, 17]: 23.2 µM
IC50 [3]: 6.26 µM
IC50 [4, 13]: 79.6 µM
IC50 [4, 16]: 79.6 µM

COc1cc(Br)c(/C=C2\Oc3ccccc3C2=O)cc1OC [Aurone 9056, (Z)-2-(2-bromo-4,5-dimethoxybenzylidene)benzofuran-3(2H)-one]
melting point: 144 to 147 °C
IC50 [1, 7]: 36 µM
IC50 [1, 8]: 36 µM
IC50 [2, 11]: 21.9 µM
IC50 [3]: 1.83 µM
IC50 [4, 13]: > 100 µM

Cc1ccccc1/C=C1\Oc2ccccc2C1=O [Aurone 9057, (Z)-2-(2-methylbenzylidene)benzofuran-3(2H)-one]
melting point: 89 to 93 °C
IC50 [1, 7]: 26.3 µM
IC50 [1, 8]: 26.3 µM
IC50 [2, 11]: 24.4 µM
IC50 [3]: < 1 µM
IC50 [4, 13]: 99.6 µM

O=C1/C(=C/c2ccc(Br)s2)Oc2ccccc21 [Aurone 9058, (Z)-2-((5-bromothiophen-2-yl)methylene)benzofuran-3(2H)-one]
melting point: 155 to 158 °C
Selectivity L6/Tc [1, 5]: 2.28
Selectivity L6/Tc [1, 6]: 2.28
Selectivity L6/Tc-I [1, 18]: 2.28
IC50 [1, 7]: 34.8 µM
IC50 [1, 8]: 34.8 µM
IC50 [1, 15]: 34.8 µM
IC50 [2, 10]: > 50 µM
IC50 [2, 11]: > 50 µM
IC50 [3]: 2.73 µM
Selectivity L6/La ([3]; Table 1): 29.05
Selectivity L6/La [3, 12]: 29.05
IC50 [4, 13]: 79.3 µM
IC50 [4, 16]: 79.3 µM

Cc1[nH]cnc1/C=C1\Oc2ccccc2C1=O [Aurone 9059, (Z)-2-((5-methyl-H-imidazol-4-yl)methylene)benzofuran-3(2H)-one]
melting point: 180 to 183 °C
selectivity for T. cruzi (L6/Tc) [1]: 61.09
Selectivity L6/Tc [1, 5]: 61.09
Selectivity L6/Tc [1, 6]: 61.09
Selectivity L6/Tc-I [1, 18]: 61.09
IC50 [1, 7]: 5.25 µM
IC50 [1, 8]: 5.25 µM
IC50 [1, 15]: 5.25 µM
IC50 ([1]; read-out: T. cruzi IC50 dose): 5.25 µM
IC50 [2, 10]: > 50 µM
IC50 [2, 11]: > 50 µM
IC50 [2, 17]: > 50 µM
IC50 [3]: 3.96 µM
Selectivity L6/La ([3]; Table 1): 80.99
Selectivity L6/La [3, 12]: 80.99
IC50 [4, 13]: 321 µM
IC50 [4, 16]: 321 µM

O=C1/C(=C/c2sccc2Br)Oc2ccccc21 [Aurone 9060]
melting point: 176 to 180 °C
IC50 [1, 7]: 34.6 µM
IC50 [1, 8]: 34.6 µM
IC50 [1, 15]: 34.6 µM
IC50 [2, 11]: > 50 µM
IC50 [3]: 1.36 µM
IC50 [4, 13]: > 100 µM
IC50 [4, 16]: > 100 µM

O=C1/C(=C/c2cc(Br)cs2)Oc2ccccc21 [Aurone 9061, (Z)-2-((4-bromothiophen-2-yl)methylene)benzofuran-3(2H)-one]
melting point: 125 to 129 °C
IC50 [1, 7]: > 50 µM
IC50 [1, 8]: > 50 µM
IC50 [1, 15]: > 50 µM
IC50 [2, 11]: > 50 µM
IC50 [3]: 1.7 µM
IC50 [4, 13]: > 100 µM
IC50 [4, 16]: > 100 µM

O=C1/C(=C/c2cccc3[nH]ccc23)Oc2ccccc21 [Aurone 9063, (Z)-2-((1H-indol-4-yl)methylene)benzofuran-3(2H)-one]
melting point: 230 to 238 °C
IC50 [1, 7]: 18.9 µM
IC50 [1, 8]: 18.9 µM
IC50 [1, 15]: 18.9 µM
IC50 [2, 11]: > 50 µM
IC50 [3]: 1.13 µM
IC50 [4, 13]: 94 µM
IC50 [4, 16]: 94 µM

O=C1/C(=C/c2ccc(CO)o2)Oc2ccccc21 [Aurone 9067, (Z)-2-((5-(hydroxymethyl)furan-2-yl)methylene)benzofuran-3(2H)-one]
melting point: 61 to 63 °C
IC50 [1, 7]: 12.5 µM
IC50 [1, 8]: 12.5 µM
IC50 [1, 15]: 12.5 µM
IC50 ([1]; read-out: T. cruzi IC50 dose): 12.5 µM
IC50 [2, 11]: 34.9 µM
IC50 [3]: < 1 µM
IC50 [4, 13]: 31.1 µM
IC50 [4, 16]: 31.1 µM
IC50 ([4]; Rattus norvegicus, read-out: toxicity in L6): 31.1 µM

O=C1/C(=C/c2ccc(O)cc2)Oc2ccccc21 [Aurone 9068, (Z)-2-(4-hydroxybenzylidene)benzofuran-3(2H)-one]
melting point: 258 to 260 °C
IC50 [1, 7]: > 50 µM
IC50 [1, 8]: > 50 µM
IC50 [2, 11]: > 50 µM
IC50 [3]: 1.57 µM
IC50 [4, 13]: > 200 µM

N#Cc1cccc(/C=C2\Oc3ccccc3C2=O)c1 [Aurone 9070, (Z)-3-((3-oxobenzofuran-2(3H)-ylidene)methyl)benzonitrile]
melting point: 175 to 177 °C
IC50 [1, 7]: 16.7 µM
IC50 [1, 8]: 16.7 µM
IC50 [2, 11]: 34.7 µM
IC50 [3]: < 1 µM
IC50 [4, 13]: > 200 µM

N#Cc1ccc(/C=C2\Oc3cc(O)ccc3C2=O)cc1 [Aurone 9076, (Z)-4-((6-hydroxy-3-oxobenzofuran-2(3H)-ylidene)methyl)benzonitrile]
melting point: 112 to 115 °C
IC50 [1, 7]: 26.3 µM
IC50 [1, 8]: 26.3 µM
IC50 [2, 11]: > 50 µM
IC50 [3]: 2.44 µM
IC50 [4, 13]: > 100 µM

O=C1/C(=C/c2ccc(C(F)(F)F)cc2)Oc2ccccc21 [Aurone 9084, (Z)-2-(4-(trifluoromethyl)benzylidene)benzofuran-3(2H)-one]
melting point: 98 to 102 °C
IC50 [1, 7]: 9.38 µM
IC50 [1, 8]: 9.38 µM
IC50 [2, 11]: 20.4 µM
IC50 [3]: 2.94 µM
IC50 [4, 13]: > 400 µM

O=C1/C(=C/c2cccc(C(F)(F)F)c2)Oc2ccccc21 [Aurone 9085, (Z)-2-(3-(trifluoromethyl)benzylidene)benzofuran-3(2H)-one]
melting point: 128 to 133 °C
IC50 [1, 7]: 11.1 µM
IC50 [1, 8]: 11.1 µM
IC50 [2, 11]: > 50 µM
IC50 [3]: 4.43 µM
IC50 [4, 13]: 73.4 µM

O=C1/C(=C/c2ccccc2C(F)(F)F)Oc2ccccc21 [Aurone 9086, (Z)-2-(2-(trifluoromethyl)benzylidene)benzofuran-3(2H)-one]
melting point: 118 to 123 °C
IC50 [1, 7]: 18.5 µM
IC50 [1, 8]: 18.5 µM
IC50 [2, 11]: 37.6 µM
IC50 [3]: 1.9 µM
IC50 [4, 13]: 130 µM

O=C1/C(=C/c2cccnc2)Oc2ccccc21 [Aurone 9253, (Z)-2-(pyridin-3-ylmethylene)benzofuran-3(2H)-one]
melting point: 122 to 123 °C
IC50 [1, 7]: 17.8 µM
IC50 [1, 8]: 17.8 µM
IC50 [1, 15]: 17.8 µM
IC50 ([2]; Trypanosoma brucei, read-out: IC50 TB): > 50 µM
IC50 [2, 11]: > 50 µM
IC50 [3]: 7.38 µM
IC50 [4, 13]: < 100 µM
IC50 [4, 16]: > 100 µM
